Assays:
[1] = system: clinically isolated HIV strain P; test: Antiviral spectrum, cellular assay (fold resistance), strain P; type: cell-based; conditions: FR=EC50(mutant strain)/EC50(HIV-1 strain LAI)
Protocol: (§1) HIV- or mock-infected MT4 cells were incubated for five days in the presence of various concentrations of the inhibitor. At the end of the incubation period, all HIV-infected cells have been killed by the replicating virus in the control cultures in the absence of any inhibitor. Cell viability is measured by measuring the concentration of MTT, a yellow, water soluble tetrazolium dye that is converted to a purple, water insoluble formazan in the mitochondria of living cells only. Upon solubilization of the resulting formazan crystals with isopropanol, the absorbance of the solution is monitored at 540 nm. The values correlate directly to the number of living cells remaining in the culture at the completion of the five day incubation. The inhibitory activity of the compound was monitored on the virus-infected cells and was expressed as EC50 and EC90. These values represent the amount of the compound required to protect 50% and 90%, respectively, of the cells from the cytopathogenic effect of the virus. The toxicity of the compound was measured on the mock-infected cells and was expressed as CC50, which represents the concentration of compound required to inhibit the growth of the cells by 50%. The selectivity index (SI) (ratio CC50/EC50) is an indication of the selectivity of the anti-HIV activity of the inhibitor.
(§2) Because of the increasing emergence of drug resistant HIV strains, the present compounds were tested for their potency against clinically isolated HIV strains harboring several mutations. These mutations are associated with resistance to protease inhibitors and result in viruses that show various degrees of phenotypic cross-resistance to the currently commercially available drugs such as for instance saquinavir, ritonavir, nelfinavir, indinavir and amprenavir.
(§3) As a measure of the broad spectrum activity of the present compounds, the fold resistance (FR) defined as FR=EC50(mutant strain)/EC50(HIV-1 strain LAI).

[2] = system: clinically isolated HIV strain B; test: Antiviral spectrum, cellular assay (fold resistance), strain B; type: cell-based; conditions: FR=EC50(mutant strain)/EC50(HIV-1 strain LAI)
Protocol: as §1, §2, §3

[3] = system: clinically isolated HIV strain D; test: Antiviral spectrum, cellular assay (fold resistance), strain D; type: cell-based; conditions: FR=EC50(mutant strain)/EC50(HIV-1 strain LAI)
Protocol: as §1, §2, §3

[4] = system: clinically isolated HIV strain G; test: Antiviral spectrum, cellular assay (fold resistance), strain G; type: cell-based; conditions: FR=EC50(mutant strain)/EC50(HIV-1 strain LAI)
Protocol: as §1, §2, §3

[5] = system: clinically isolated HIV strain K; test: Antiviral spectrum, cellular assay (fold resistance), strain K; type: cell-based; conditions: FR=EC50(mutant strain)/EC50(HIV-1 strain LAI)
Protocol: as §1, §2, §3

[6] = system: clinically isolated HIV strain M; test: Antiviral spectrum, cellular assay (fold resistance), strain M; type: cell-based; conditions: FR=EC50(mutant strain)/EC50(HIV-1 strain LAI)
Protocol: as §1, §2, §3

[7] = system: clinically isolated HIV strain N; test: Antiviral spectrum, cellular assay (fold resistance), strain N; type: cell-based; conditions: FR=EC50(mutant strain)/EC50(HIV-1 strain LAI)
Protocol: as §1, §2, §3

[8] = system: clinically isolated HIV strain C; test: Antiviral spectrum, cellular assay (fold resistance), strain C; type: cell-based; conditions: FR=EC50(mutant strain)/EC50(HIV-1 strain LAI)
Protocol: as §1, §2, §3

[9] = system: clinically isolated HIV strain J; type: cell-based; conditions: FR=EC50(mutant strain)/EC50(HIV-1 strain LAI)
Procedure, shortened: (§4)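 Anti-HIV activity against multiply mutated clinical isolates is measured in MT4 cells over a five-day incubation, using MTT viability (540 nm) as a proxy for protection from viral cytopathicity. Values are reported as EC50 or as fold change versus the LAI reference strain.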

[10] = system: clinically isolated HIV strain O; type: cell-based; conditions: FR=EC50(mutant strain)/EC50(HIV-1 strain LAI)
Procedure, shortened: as §4

[11] = system: clinically isolated HIV strain I; type: cell-based; conditions: FR=EC50(mutant strain)/EC50(HIV-1 strain LAI)
Procedure, shortened: as §4

[12] = system: clinically isolated HIV strain T; type: cell-based; conditions: FR=EC50(mutant strain)/EC50(HIV-1 strain LAI)
Procedure, shortened: as §4

[13] = system: clinically isolated HIV strain H; type: cell-based; conditions: FR=EC50(mutant strain)/EC50(HIV-1 strain LAI)
Procedure, shortened: as §4

[14] = system: clinically isolated HIV strain L; test: Antiviral spectrum, cellular assay (fold resistance), strain L; type: cell-based; conditions: FR=EC50(mutant strain)/EC50(HIV-1 strain LAI)
Protocol: as §1, §2, §3

[15] = system: clinically isolated HIV strain R; test: Antiviral spectrum, cellular assay (fold resistance), strain R; type: cell-based; conditions: FR=EC50(mutant strain)/EC50(HIV-1 strain LAI)
Protocol: as §1, §2, §3

[16] = system: clinically isolated HIV strain A; test: Antiviral spectrum, cellular assay (fold resistance), strain A; type: cell-based; conditions: FR=EC50(mutant strain)/EC50(HIV-1 strain LAI)
Protocol: as §1, §2, §3

[17] = system: virus strain F (R13025); test: microbe, parasite or virus in culture; type: cell-based, HIV; conditions: FR=EC50(mutant strain)/EC50(HIV-1 strain LAI); strain F
Procedure, shortened: as §4

[18] = system: virus strain S (R13080); test: microbe, parasite or virus in culture; type: cell-based, HIV; conditions: FR=EC50(mutant strain)/EC50(HIV-1 strain LAI); strain S
Procedure, shortened: as §4

[19] = system: clinically isolated HIV strain Q; test: Antiviral spectrum, cellular assay (fold resistance), strain Q; type: cell-based; conditions: FR=EC50(mutant strain)/EC50(HIV-1 strain LAI)
Protocol: as §1, §2, §3

[20] = system: HIV-1 strain LAI; test: Cellular anti-HIV assay in MT4 cells (MTT), wild type laboratory strain; type: cell-based; conditions: Human immunodeficiency virus 1, 120 h; MT4 cells, five days, MTT; read-out: EC50 value against HIV-1 strain LAI
Protocol: The compounds of the present invention were examined for anti-viral activity in a cellular assay. […] The cellular assay was performed according to the following procedure.
Cellular Assay Experimental Method:
as §1

[21] = system: clinically isolated HIV strain E; test: Antiviral spectrum, cellular assay (fold resistance), strain E; type: cell-based; conditions: FR=EC50(mutant strain)/EC50(HIV-1 strain LAI)
Protocol: as §1, §2, §3

SMILES	fold resistance (FR), strain P [1]	fold resistance (FR), strain B [2]	fold resistance (FR), strain D [3]	fold resistance (FR), strain G [4]	fold resistance (FR), strain K [5]	fold resistance (FR), strain M [6]	fold resistance (FR), strain N [7]	fold resistance (FR), strain C [8]	fold resistance (FR), strain J [9]	fold resistance (FR), strain O [10]	fold resistance (FR), strain I [11]	fold resistance (FR), strain T [12]	fold resistance (FR), strain H [13]	fold resistance (FR), strain L [14]	fold resistance (FR), strain R [15]	fold resistance (FR), strain A [16]	fold resistance (FR), strain F [17]	fold resistance (FR), strain S [18]	fold resistance (FR), strain Q [19]	fold resistance (FR), strain E [21]	other results
CCOC(=O)Nc1nc2ccc(S(=O)(=O)N(CC(C)C)CC(O)C(Cc3ccccc3)NC(=O)OC3COC4OCCC34)cc2s1 (centres unmarked) [Compound 2]	0.2	0.2	0.3	0.2	0.2	0.3	1.1	0.2	0.4	0.8	0.7	29.6	1.0	0.2	0.3	0.3	1.1	1.7	0.3	0.4	EC50 [20]: < 50 nM
CC(C)CN(CC(O)C(Cc1ccccc1)NC(=O)OC1COC2OCCC12)S(=O)(=O)c1ccc2nc(NC(=O)CN3CCCC3)sc2c1 (centres unmarked) [Compound 12]	0.1	0.4	0.4	0.2	0.2	0.2	0.4	0.3	0.3	0.4	0.4	5.9	0.4	0.1	0.4	0.3	0.4	0.8	0.4	0.4	EC50 [20]: < 50 nM
CC(C)CN(C[C@@H](O)[C@H](Cc1ccccc1)NC(=O)O[C@H]1CCOC1)S(=O)(=O)c1ccc2nc(NC(=O)CN(C)C)sc2c1 [Compound 34]	0.9	5.9	6.6	3.2	1.3	1.2	4.0	5.5	5.8	5.0	5.6	802.7	11.4	1.2	1.1	5.0	61.9	99.6	4.0	4.5	
CC(C)CN(C[C@@H](O)[C@H](Cc1ccccc1)NC(=O)O[C@H]1CCOC1)S(=O)(=O)c1ccc2nc(NC(=O)CN3CCNCC3)sc2c1 [Compound 35]	0.2	0.9	0.5	0.5	0.4	0.6	1.1	0.6	0.8	0.3	0.8	22.2	0.8	0.2	0.9	0.5	2.1	4.3	0.9	0.9	
Cc1cccc(C)c1OCC(=O)N[C@@H](Cc1ccccc1)[C@H](O)CN(CC(C)C)S(=O)(=O)c1ccc2nc(NC(=O)CN3CCCC3)sc2c1 [Compound 37]	0.3	1.9	1.4	1.3	0.5	5.0	1.4	3.8	5.0	7.3	6.8	185.8	4.1	2.1	1.5	6.1	6.1	10.0	3.8	1.6	
CC(C)CN(C[C@@H](O)[C@H](Cc1ccccc1)NC(=O)O[C@H]1CCOC1)S(=O)(=O)c1ccc2nc(NC(=O)CN3CCN(C)CC3)sc2c1.O=C(O)C(F)(F)F [Compound 64]	0.2	0.7	0.6	0.6	0.7	0.7	0.9	0.6	1.0	0.8	1.3	165.5	0.9	0.2	0.6	0.7	4.6	17.0	2.3	0.7	

From patent US7659404B2, “Broad spectrum 2-(substituted-amino)-benzothiazole sulfonamide HIV protease inhibitors” (Tibotec Pharmaceuticals Ltd., priority 2001, dated 2010)
